Source: ChEMBL document CHEMBL1201862, “PubChem BioAssay data set” (2004)
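Briefly, cells in 96-well plates were exposed to five compound concentrations for 48 h, and endpoints were estimated by linear interpolation. At the GI50, growth is halved.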 The source made the active and inactive calls. Cut-off read from the data, not from the text of the source: active = GI50 up to about 1.1 µM and inactive = higher.

What was measured:
Assay in all cases: DTP human tumour cell line panel, 48 h
KM-20L2 = test system: KM-20L2
DMS-114 = test system: DMS-114
IGROV-1 = test system: IGROV-1
A498 = test system: A498
RXF 393 = test system: RXF 393
A549 = test system: A549
SN12C = test system: SN12C
COLO 205 = test system: COLO 205
DMS-273 = test system: DMS-273
OVCAR-5 = test system: OVCAR-5
HOP-92 = test system: HOP-92
786-0 = test system: 786-0
NCI-H23 = test system: NCI-H23
SNB-78 = test system: SNB-78
KM12 = test system: KM12
SNB-19 = test system: SNB-19
UACC-257 = test system: UACC-257
ACHN = test system: ACHN
NCI/ADR-RES = test system: NCI/ADR-RES
Hs-578T = test system: Hs-578T

Measured: GI50

O=c1c2ccccc2[nH]c2c(O)ccc(O)c12
inactive: KM-20L2 78.9 µM | DMS-114 17.9 µM | IGROV-1 15.1 µM | A498 38.3 µM | RXF 393 11.7 µM | A549 36.2 µM | SN12C 14.2 µM | COLO 205 > 10 µM | DMS-273 16.6 µM | OVCAR-5 > 76.9 µM | HOP-92 18.8 µM | 786-0 18.8 µM | NCI-H23 27.4 µM | SNB-78 19 µM | KM12 45.1 µM | SNB-19 38.7 µM | UACC-257 18.1 µM | ACHN 17.3 µM

CS(=O)(=O)c1nc(Cl)c(Cl)c(C#N)c1Cl
inactive: KM-20L2 6.03 µM | DMS-114 5.32 µM | IGROV-1 6.59 µM | A498 17.5 µM | NCI/ADR-RES 2.25 µM | RXF 393 1.61 µM | A549 18.7 µM | SN12C 2.27 µM | COLO 205 1.45 µM | Hs-578T 4.34 µM | DMS-273 6.68 µM | OVCAR-5 4.39 µM | HOP-92 1.99 µM | 786-0 1.94 µM | NCI-H23 1.32 µM | SNB-78 9.91 µM | KM12 6.97 µM | SNB-19 19.8 µM | UACC-257 2.49 µM | ACHN 2.6 µM
